The text below walks through data of US9624211B2, “Anti-cancer compounds” (Board of Regents, The University of Texas System, priority 2013, dated 2017).

Molecules are shown by their SMILES. Entries after “also recorded” stand apart in the source; their conditions may differ.

The target in assay [1] is T1, Skp2-mediated Akt ubiquitination (Homo sapiens, UniProt Q13309).
T1 construct: expressed in transfected cells; host or cells: 293T
Kind of assay: In vivo Akt ubiquitination assay. It counts as cell-based. As to conditions: FIG. 1G. As for the experimental part: (§1) In vivo and in vitro ubiquitination assays were performed as described with modification (Lin et al., 2009; Yang et al., 2009). For in vitro ubiquitination assay, recombinant GST-Akt proteins were expressed, purified and eluted from the bacterial lysates of BL21 competent cells. Flag-Skp2 SCF complex were expressed in 293T cells, immunoprecipitated by anti-Flag antibody, and eluted from Protein A/G beads using Flag peptides according to manufacturers' standard procedures. Purified GST-Akt and Flag-SCF proteins were incubated for 3 h at 37° C. in the absence and presence of Skp2 inhibitor. After incubation, protein mixtures were diluted in E1A Buffer and the supernatant fluid was precleared with Protein A/G beads for 1 h, and immunoprecipitated overnight with anti-Flag antibody, after which Protein A/G beads were added for an additional 1 h. Beads were washed 4 times with E1A Buffer. Proteins were eluted in SDS-sample buffer and subjected to immunoblotting analysis. For in vivo ubiquitination assay, 293T cells were transfected with the indicated plasmids and cultured in the absence or presence of Skp2 inhibitor for 48 h. 6 h before harvest, cells were cultured in the presence of MG132. After cell harvest, cells were lysed by the denatured buffer (6M guanidine-HCl, 0.1M Na2HPO4/NaH2PO4, 10 mM imidazole). […]

For another assay, the system named is Hep3B (liver). Kind of assay: Cell survival assay, Hep3B. It counts as cell-based, human. As for the experimental part: (§2) For Skp2 inhibitor administration, 5-10×10^3 of cells with were seeded in 12 wells in triplicate, 24 h later, treated with compound #25 (refreshed every two days). Four days later, cells were harvested, stained with trypan blue, and viable cells were counted directly under the microscope using hemocytometer. For doxorubicin treatment, 8×10^3 of PC3 cells with were seeded in 12 wells in triplicate, 24 h later, treated with various dose of compound #25 in the presence or absence of 10 nM doxorubicin or 25 ng/ml cyclophosphamide for four and three days, respectively (refreshed every two days). After treatment, cells were harvested, stained with trypan blue, and viable cells were counted directly under the microscope using hemocytometer. Cellular senescence was determined by assessing SA-b-gal activity using senescence detection kit according to manufacturers' standard procedures (Calbiochem).

The next assay relates to LNCaP cells. Kind of assay: Cell survival assay, LNCaP. It is filed as cell-based, human. As for the experimental part:
as §2

For the next assay, the target named is T2, Skp2 SCF E3 ligase (Homo sapiens, UniProt Q13309).
T2 construct: expressed in transfected cells; host or cells: 293T
Kind of assay: In vivo p27 ubiquitination assay in 293T cells. It is filed as cell-based. The note with it: WT Skp2. How it is done: as §1

The subject of the next assay is ERK activation. Kind of assay: ERK activation after EGF, immunoblotting. It is filed as cell-based. (In general: Immunoblotting shows a protein as a band on a membrane.)
A further assay deals with PC3 cells. The assay is described as follows: Cell cycle by PI staining and flow cytometry. It is filed as cell-based, human. As to conditions: PC3 cells treated for 2 days. As for the experimental part:
FIGS. 12A-D. Skp2 inhibitor triggers cell growth suppression and cell cycle arrest at G2/M phase, related to FIG. 4. (FIG. 12A) The impact of Skp2 inhibitor on growth suppression in various cell lines. A panel of cancer cell lines were treated with various doses of Skp2 inhibitor (#25) for 4 days, and viable cell numbers were counted using hemocytometer. Growth inhibition (IC50) by compound #25 was derived from the cell counting using hemocytometer. (FIG. 12B) PC3 cells were treated with or without compound #25 for 2 days and cell cycle were determined by PI staining, followed by flow cytometry analysis. G1 phase=61.3±0.3%, S phase=15.6±0.6% and G2/M phase=20.3±0.3% in DMSO-treated PC3 cells while G1 phase=50.1±0.9%, S phase=13.3±0.8% and G2/M phase=24.5±0.3% in #25-treated PC3 cells. (FIG. 12C) Control- or Skp2-knockdown PC3 cells were treated with or without compound #25 for 2 days and cell cycle were determined by PI staining, followed by flow cytometry analysis. Two clones of Skp2 shRNA were used in this assay. G1 phase=53.1±0.8% and S phase=15.9±0.9% and G2/M phase=26.1±0.6% in control-knockdown PC3 cells, G1 phase=49.5±0.4%, S phase=13.6±0.7% and G2/M phase=29.1±0.5% in one clone of Skp2-silenced PC3 cells, G1 phase=54.5±1.6%, S phase=10.6±0.4% and G2/M phase=28.8±0.2% in another clone of Skp2-silenced PC3 cells. (FIG. 12D) WT or Skp2−/− MEFs were treated with or without compound #25 for 2 days, and cell cycle was determined by PI staining, followed by flow cytometry analysis. G1 phase=50.5±4.6%, S phase=9.1±0.6% and G2/M phase=27.8±0.9% in WT MEFs while G1 phase=27.7±1.3%, S phase=8.2±1.9% and G2/M phase=39.0±1.6% in Skp2−/− MEFs. Results are presented as mean values ±S.D. * indicates p<0.05, ** indicates p<0.01. Results from treatment groups were compared to vehicle-treated group.
A general note: Flow cytometry measures light scatter and fluorescence of single cells or particles in a stream.

The subject of the next assay is A549 xenograft tumors. The assay is described as follows: A549 tumor xenograft in nude mice. It is filed as in vivo. The note with it: IP injection. As for the experimental part: Nude mice bearing PC3 or A549 xenograft tumors (around 100 mm^3) were administrated with vehicle or 80 mg/kg compound #25 on a daily basis. Tumor size was measured weekly with a caliper, and tumor volume was determined with the standard formula: L×W2×0.52, where L is the longest diameter and W the shortest diameter.

In the next assay the test system is Skp2 protein expression. Kind of assay: Skp2 protein expression, immunoblotting. It is filed as cell-based. The note with it: higher dosage (20 μM). An excerpt:
Cells were lysed with RIPA buffer in the presence of protease inhibitor cocktail (Roche). The following antibodies were used for immunoblotting analysis: anti-Skp2 (Invitrogen), anti-Xpress (Invitrogen), anti-p27 (BD transduction laboratories), anti-p21 (Santa Cruz), anti-β-actin (Sigma), anti-α-tubulin (Sigma), anti-phospho-Akt (Thr308) (Cell Signaling), anti-phospho-Akt (Ser473) (Cell Signaling), and anti-HA (Convance). For immunohistochemistry, tissues were fixed in 10% formalin and embedded in paraffin in accordance with standard procedures. Sections were stained with anti-Skp2 (Invitrogen), anti-p27 (Epitomics), anti-phosphoAkt (SerS473) (Cell signaling), anti-Glut1 (Abcam), and anti-Ki67 (Abcam). TUNEL staining was performed by using in situ cell death detection kit-POD (Roche).

T2 sequence (Q13309 whole entry): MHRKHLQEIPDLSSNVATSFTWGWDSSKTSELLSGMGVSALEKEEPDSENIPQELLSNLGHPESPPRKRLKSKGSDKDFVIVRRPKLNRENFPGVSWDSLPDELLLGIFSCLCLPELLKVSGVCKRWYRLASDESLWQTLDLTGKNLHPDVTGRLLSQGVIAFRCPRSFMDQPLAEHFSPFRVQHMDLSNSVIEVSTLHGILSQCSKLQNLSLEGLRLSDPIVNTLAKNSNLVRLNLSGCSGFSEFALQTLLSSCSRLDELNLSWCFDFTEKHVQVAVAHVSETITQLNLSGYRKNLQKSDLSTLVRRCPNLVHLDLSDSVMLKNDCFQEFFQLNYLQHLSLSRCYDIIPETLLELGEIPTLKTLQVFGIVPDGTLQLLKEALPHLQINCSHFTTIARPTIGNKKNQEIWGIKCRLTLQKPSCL
T1 sequence (Q13309 whole entry): as above

Take `CCc1cc2c(=O)c(-c3nc4ccccc4s3)coc2c(CN2CCCCC2)c1O` [compound #25, 3-(1,3-benzothiazol-2-yl)-6-ethyl-7-hydroxy-8-(1-piperidinylmethyl)-4H-chromen-4-one]: the “Skp2-mediated Akt ubiquitination in cells” value in assay [1] is “inhibited Skp2-mediated Akt ubiquitination”. The cell viability result with Hep3B (liver) is listed as “potent suppressive effect on viability”. Further, the cell viability result in the assay with LNCaP cells was “potent effects on cell viability”. For the same compound, at Skp2 SCF E3 ligase, the “Skp2-mediated p27 ubiquitination” value is “inhibited Skp2-mediated p27 ubiquitination in a dose-dependent manner; also recorded: abrogated E3 ligase activity”. In the assay with ERK activation, the ERK activation entry is on record as “no noticeable impact”. Further, in the assay with PC3 cells, the G1 phase is recorded as 50.1±0.9%, the G2/M phase was determined as 24.5±0.3% and the S phase is recorded as 13.3±0.8%. Besides, the “lung tumor growth in vivo” value with A549 xenograft tumors is recorded as “potent effect”. In addition, in the assay with Skp2 protein expression, the Skp2 protein expression entry is recorded as “downregulated Skp2 protein expression”.
